Activity calls are given as the source filed them. The calls are words filed in the database; no cut-off is given here.
Legend:
[1] = AUC (0 to infinitive) in Sprague-Dawley rat at 20 mg/kg, po measured upto 1440 mins by LC-MS/MS analysis; format: ADME, organism-based; set-up: dose 20 mg/kg, time < 1440 min, route po; conditions: in vivo
Mus musculus [2] = test: Effect on hedonic component behavior in C57BL/6N mouse at 50 mg/kg, po treated for 14 days by sucrose preference test; format: functional, organism-based; conditions: time 14.0 day
Mus musculus [3] = test: Effect on total travelled distance of C57BL/6N mouse at 100 mg/kg, po treated for 14 days by locomotor activity test; format: functional, organism-based; conditions: time 14.0 day
MC-38 = test: Antitumor activity against mouse MC-38 cells subcutaneously transplanted in C57BL/6N mouse assessed as reduction in absolute tumor volume at 50 mg/kg, po bid measured on day 20 relative to control; format: functional; conditions: MC-38, 480 h, route sc, time 20 day
[4] = Metabolic stability in human hepatocytes assessed as half life; format: ADME, cell-based, Hepatocyte
[5] = Mutagenicity in Salmonella typhimurium TA98 in presence or absence of rat liver S9 fraction by Ames test; format: toxicity; conditions: salmonella enterica subsp. enterica serovar typhimurium
Mus musculus [6] = test: Effect on total travelled distance of C57BL/6N mouse at 20 mg/kg, po treated for 14 days by locomotor activity test; format: functional, organism-based; conditions: time 14.0 day
Cytochrome P450 1A2 = target: T1, Cytochrome P450 1A2 (Homo sapiens, UniProt P05177); test: Inhibition of CYP1A2 in human liver microsome using phenacetin as substrate measured upto 50 uM incubated for 10 mins followed by NADPH addition incubated for 10 mins by LC/MS/MS analysis; format: ADME; conditions: microsomes, 20 min
T1 sequence (P05177 whole entry): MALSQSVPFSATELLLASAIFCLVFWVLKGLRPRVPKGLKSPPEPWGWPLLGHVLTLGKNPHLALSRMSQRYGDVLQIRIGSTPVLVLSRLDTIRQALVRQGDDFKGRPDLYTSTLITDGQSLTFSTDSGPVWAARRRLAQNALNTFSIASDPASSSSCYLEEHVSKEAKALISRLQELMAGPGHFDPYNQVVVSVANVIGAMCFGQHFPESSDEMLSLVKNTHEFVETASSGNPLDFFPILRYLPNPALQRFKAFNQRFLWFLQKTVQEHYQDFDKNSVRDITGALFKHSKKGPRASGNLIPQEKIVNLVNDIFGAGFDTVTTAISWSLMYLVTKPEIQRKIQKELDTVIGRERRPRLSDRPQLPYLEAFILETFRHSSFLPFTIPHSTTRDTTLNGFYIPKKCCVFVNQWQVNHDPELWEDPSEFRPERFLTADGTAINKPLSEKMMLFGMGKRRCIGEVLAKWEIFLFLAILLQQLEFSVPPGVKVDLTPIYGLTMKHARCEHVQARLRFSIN

[7] = Apparent permeability across basal to apical side in human Caco-2 cells at pH 6.5/7.4 measured at 5 uM by LC-MS/MS analysis; format: ADME, cell-based; conditions: Caco-2, pH 6.5
[8] = AUC (0 to last) in Sprague-Dawley rat at 20 mg/kg, po measured upto 1440 mins by LC-MS/MS analysis; format: ADME, organism-based; set-up: time < 1440 min, dose 20 mg/kg, route po; conditions: in vivo
[9] = Toxicity in C57BL/6N mouse subcutaneously transplanted with mouse MC-38 cells assessed as general toxic effects at 50 mg/kg, po bid measured on day 20; format: organism-based; conditions: in vivo, sc, 480 h, time 20 day
[10] = Drug uptake in CD-1 (ICR) mouse brain at 50 mg/kg measured 0.5 hrs by LC-MS/MS analysis; format: ADME, organism-based; conditions: read-out: Drug uptake
[11] = MRT (0 to infinitive) in Sprague-Dawley rat at 20 mg/kg, po measured upto 1440 mins by LC-MS/MS analysis; format: ADME, organism-based; conditions: in vivo
[12] = Half life in Sprague-Dawley rat at 20 mg/kg, po measured upto 1440 mins by LC-MS/MS analysis; format: ADME, organism-based; conditions: in vivo
[13] = target: T2, Tryptophan 5-hydroxylase 1 (Homo sapiens) (UniProt P17752); test: Binding affinity to […] (unknown origin) assessed as association rate constant by surface plasmon resonance analysis
T2 sequence (whole entry): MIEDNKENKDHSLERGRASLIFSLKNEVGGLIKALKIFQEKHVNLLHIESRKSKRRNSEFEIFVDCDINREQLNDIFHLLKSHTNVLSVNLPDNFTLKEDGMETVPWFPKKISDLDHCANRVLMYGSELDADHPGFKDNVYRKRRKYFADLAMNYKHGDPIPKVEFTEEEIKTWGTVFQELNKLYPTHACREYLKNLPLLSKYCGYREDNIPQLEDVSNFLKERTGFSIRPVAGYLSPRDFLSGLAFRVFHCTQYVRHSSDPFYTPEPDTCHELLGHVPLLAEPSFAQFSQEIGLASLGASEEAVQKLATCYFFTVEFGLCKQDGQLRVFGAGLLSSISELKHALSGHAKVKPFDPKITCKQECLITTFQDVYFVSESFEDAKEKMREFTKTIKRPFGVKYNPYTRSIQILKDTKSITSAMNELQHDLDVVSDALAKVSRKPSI

[14] = Cmax in CD-1 (ICR) mouse at 50 mg/kg, po measured upto 1440 mins by LC-MS/MS analysis; format: ADME, organism-based; set-up: dose 50 mg/kg, time < 1440 min, route po; conditions: in vivo
[15] = Metabolic stability in rat hepatocytes assessed as half life; format: ADME, cell-based, Hepatocyte
Cytochrome P450 2C19 = Cytochrome P450 2C19 (Homo sapiens, UniProt P33261); test: Inhibition of CYP2C19 in human liver microsome using S-mephenytoin as substrate measured upto 50 uM incubated for 10 mins followed by NADPH addition incubated for 10 mins by LC/MS/MS analysis; format: ADME; conditions: microsomes, 20 min
Cytochrome P450 2D6 = Cytochrome P450 2D6 (Homo sapiens, UniProt P10635); test: Inhibition of CYP2D6 in human liver microsome using dextromethorphan as substrate measured upto 50 uM incubated for 10 mins followed by NADPH addition incubated for 10 mins by LC/MS/MS analysis; format: ADME; conditions: microsomes, 20 min
[16] = AUMCExtra in Sprague-Dawley rat at 50 mg/kg, po measured upto 1440 mins by LC-MS/MS analysis; format: ADME, organism-based; conditions: in vivo, 24 h
[17] = Tlast in CD-1 (ICR) mouse at 50 mg/kg, po measured upto 1440 mins by LC-MS/MS analysis; format: ADME, organism-based; conditions: in vivo, 24 h
[18] = Cmax in Sprague-Dawley rat at 50 mg/kg, po measured upto 1440 mins by LC-MS/MS analysis; format: ADME, organism-based; set-up: time < 1440 min, dose 50 mg/kg, route po; conditions: in vivo
[19] = target: T2, Tryptophan 5-hydroxylase 1 (Homo sapiens); test: Binding affinity to […] (unknown origin) assessed as dissociation rate constant by surface plasmon resonance analysis
[20] = Tlast in Sprague-Dawley rat at 50 mg/kg, po measured upto 1440 mins by LC-MS/MS analysis; format: ADME, organism-based; conditions: in vivo, 24 h
[21] = MRT (0 to infinitive) in CD-1 (ICR) mouse at 50 mg/kg, po measured upto 1440 mins by LC-MS/MS analysis; format: ADME, organism-based; conditions: in vivo
[22] = Reduction in serotonin level in C57BL/6N mouse duodenum at 15 mg/kg, po bid treated for 7 days by HPLC analysis relative to control; format: functional; conditions: 168 h, time 7 day
[23] = Toxicity in C57BL/6N mouse assessed as body weight change at 1.5 to 15 mg/kg, po bid treated for 7 days; format: organism-based; conditions: in vivo, 168 h, dose 1.5-15 mg/kg, time 7 day
[24] = Tlast in Sprague-Dawley rat at 20 mg/kg, po measured upto 1440 mins by LC-MS/MS analysis; format: ADME, organism-based; conditions: in vivo, 24 h

Sequence of Cytochrome P450 2C19 (P33261 whole entry): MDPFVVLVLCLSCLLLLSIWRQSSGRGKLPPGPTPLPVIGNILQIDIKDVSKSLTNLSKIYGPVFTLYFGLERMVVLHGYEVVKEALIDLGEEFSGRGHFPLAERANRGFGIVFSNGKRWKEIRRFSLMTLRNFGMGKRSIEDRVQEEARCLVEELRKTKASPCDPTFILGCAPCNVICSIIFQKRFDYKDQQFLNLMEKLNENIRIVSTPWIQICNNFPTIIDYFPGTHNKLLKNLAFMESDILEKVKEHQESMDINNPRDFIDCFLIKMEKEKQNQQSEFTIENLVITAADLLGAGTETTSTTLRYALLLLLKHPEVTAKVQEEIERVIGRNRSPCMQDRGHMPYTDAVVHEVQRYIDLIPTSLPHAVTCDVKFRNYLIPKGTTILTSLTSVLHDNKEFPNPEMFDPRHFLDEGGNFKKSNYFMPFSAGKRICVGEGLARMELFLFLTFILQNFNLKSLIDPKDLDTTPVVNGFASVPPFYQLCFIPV
Sequence of Cytochrome P450 2D6 (P10635 whole entry): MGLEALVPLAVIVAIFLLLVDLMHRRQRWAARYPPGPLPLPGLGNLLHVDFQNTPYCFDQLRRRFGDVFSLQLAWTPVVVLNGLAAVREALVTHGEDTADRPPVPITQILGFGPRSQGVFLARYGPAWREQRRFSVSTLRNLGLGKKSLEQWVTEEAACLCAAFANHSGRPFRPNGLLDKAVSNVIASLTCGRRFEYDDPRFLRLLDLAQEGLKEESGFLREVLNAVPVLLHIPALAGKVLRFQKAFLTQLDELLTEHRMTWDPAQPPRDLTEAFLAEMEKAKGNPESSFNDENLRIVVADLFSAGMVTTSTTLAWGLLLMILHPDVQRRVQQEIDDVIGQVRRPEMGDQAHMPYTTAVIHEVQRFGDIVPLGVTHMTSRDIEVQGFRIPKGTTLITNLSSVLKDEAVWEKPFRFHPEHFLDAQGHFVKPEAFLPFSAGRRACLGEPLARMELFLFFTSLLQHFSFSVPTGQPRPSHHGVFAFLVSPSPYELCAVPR

Structure (SMILES): CCn1c(=O)[nH]c(=O)c2c1nc(Cc1cn3cc(C)sc3n1)n2CC1COC1
- AUC(0-inf) [1]: 3320 ng·h/mL
- Activity (Mus musculus [2]): inactive
- Activity (Mus musculus [3]): inactive
- inhibition in vivo at 50 mg/kg (MC-38): 35%
- half-life [4]: > 2.42 h
- Activity [5]: Non-Toxic
- Activity (Mus musculus [6]): inactive
- inhibition (INH) (Cytochrome P450 1A2): Not Active
- Papp B→A at 5 µM [7]: 23 ×10⁻⁶ cm/s
- AUC(0-t) at 24 h [8]: 3300 ng·h/mL
- Activity [9]: Non-Toxic
- concentration at 0.5 h [10]: 53 ng/g
- MRT inf [11]: 3.14 h
- half-life [12]: 4.48 h
- Ka [13]: 2.29 10^6/M/s
- Cmax [14]: 6950 ng/mL
- half-life [15]: > 2.42 h
- inhibition (INH) (Cytochrome P450 2C19): Not Active
- inhibition (INH) (Cytochrome P450 2D6): Not Active
- AUMC [16]: 4.6%
- Tlast [17]: 12 h
- Cmax [18]: 4100 ng/mL
- Kdiss [19]: 0.007 s⁻¹
- Tlast [20]: 24 h
- MRT inf [21]: 1.65 h
- inhibition in vivo at 15 mg/kg [22]: 50%
- Activity [23]: Non-Toxic
- Tlast [24]: 24 h

Reference: ChEMBL document CHEMBL5370659 (J Med Chem, 2023)
